Data: article PMC4833932, “Cytotoxicity and cell cycle arrest induced by andrographolide lead to programmed cell death of MDA-MB-231 breast cancer cell line” (Journal of Biomedical Science, 2016)
Where “and” joins values, the source holds several entries; their conditions need not be identical. Equal entries are not always repeated.

Experiments:
[1] = tested on: MCF-10A normal human breast epithelial immortalized cell line; test: In vitro cytotoxicity (MTT) assay; type: cell-based; settings: for IC50: Homo sapiens, MCF-10A, MTT
Description: (§1) The effect of andrographolide on cell viability was measured by MTT assay following the method by Mosmann. Briefly, the cells (1 × 10^5 cells per ml) were seeded in a 96 well micro titer plate (100 μl per well) with replications. Treatment was conducted for 24 and 48 h with different concentrations (0, 5, 7.5, 15, 30, 45, 60, 75 and 100 μM) of andrographolide. After incubation, 20 μl of 5 mg/ml MTT stock solution was added to each well and incubated for 4 h at 37 °C. The obtained formazan crystals were solubilized with DMSO and the absorbance was measured at 570 nm using a microplate reader (SpectraMax M5, Molecular Devices, USA). Cell viability (%) has been shown as a ratio of absorbance (A570) in treated cells to absorbance in control cells (0.1 % DMSO) (A570). The IC50 was calculated as the concentration of sample needed to reduce 50 % of the absorbance in comparison to the DMSO-treated control. Percent cell viability was calculated following the equation: Cellviability%=A570Sample/A570ControlDMSO×100

[2] = tested on: MCF-7; test: In vitro cytotoxicity (MTT) assay; type: cell-based; settings: Homo sapiens
Description: as §1

[3] = tested on: T-47D; test: In vitro cytotoxicity (MTT) assay; type: cell-based; settings: Homo sapiens, T47D
Description: as §1

[4] = tested on: MDA-MB-231; test: In vitro cytotoxicity (MTT) assay; type: cell-based, human
Description: as §1

[5] = tested on: MCF-7 cells; test: Annexin V-FITC/PI flow cytometry (apoptosis); type: cell-based, human; settings: MCF-7, IC50 concentration, 48 h
Description: (§2) In order to examine phosphatidyl serine externalization from inner to the outer cell membrane, a characteristic feature of apoptotic cell death and to quantify the percentage of apoptotic cell death, cultured MDA-MB-231 cells (1 × 10^6) were treated with 50 % inhibitory concentration (30 μM) of andrographolide for 24 h, 36 h and 48 h. Cells were resuspended in 1X binding buffer, labelled with fluorescein isothiocyanate (FITC)-conjugated Annexin V (200 μg/ml) and PI (30 μg/ml), incubated for 15 min at room temperature in the dark and analyzed by flow cytometry using BD FACSVerse™ (Becton Dickinson, USA). Data were analyzed using FACSuite™ software. For each set, total of 10,000 events were recorded. Similar experiment was also performed using MCF-7 cells treated with andrographolide for 48 h.

[6] = tested on: MDA-MB-231 cells; test: Annexin V-FITC/PI flow cytometry (apoptosis); type: cell-based, human; settings: 30 μM
Description: as §2

[7] = tested on: MDA-MB-231 cells; test: Cell proliferation assay (trypan blue); type: cell-based, human; settings: 30 μM, 48 h
Description: MDA-MB-231 cells harvested from exponential growth phase were seeded at a density of 1 × 10^4/well in a 24-well culture plate. After 24 h, the cells were treated with varying concentrations of andrographolide (15, 30, 45 and 60 μM) or DMSO (0.1 %, vehicle control) for 12, 24, 36 and 48 h. After treatment, cells were harvested by trypsinization, stained with 0.4 % trypan blue and counted in a hemocytometer. Cell proliferation index PI, was calculated as PI = Ct/C0; where Ct = cell count at time t and C0 = cell count at the time of treatment.

[8] = tested on: MDA-MB-231 cells; test: Mitochondrial membrane potential (Rhodamine 123); type: cell-based, human; settings: 15-60 μM, 24 and 48 h
Description: The loss of mitochondrial membrane potential (∆ψm) (MMP) is a primary event leading to phosphatidyl serine externalization, which corresponds with the activation of caspase. MMP was quantified by the incorporation of a fluorescent dye Rhodamine 123 [25]. Cells (1 × 10^4 per well) were incubated with different concentrations (15, 30, 45 or 60 μM) of andrographolide in the absence or presence of NAC for 24 and 48 h. Positive control was obtained with a mitochondrial uncoupling agent, carbonyl cyanide m-chloro-phenylhydrazone (CCCP; 20 μM) for 30 min. The treated cells were washed twice with chilled PBS before incubation with Rhodamine 123 (5 μg/ml) and kept at 37 °C for 15 min. The fluorescence intensity was detected using an emission filter of 535 nm. Same experiment was also performed using MCF-7 cells.

[9] = tested on: male mice; set-up: method as in PMID 2228074; settings: intraperitoneal route; cited from earlier work
[10] = tested on: platelets; set-up: method as in PMID 21822619; dose or concentration left out as unconfirmed; settings: cited from earlier work
[11] = tested on: caspase-9; test: Caspase activity assay (fluorometric, LEHD-AFC) in MDA-MB-231 cells; type: cell-based, human; settings: 0-60 μM, 24 h
Description: MDA-MB-231 cells (1 × 10^5 cells per ml) were incubated with different concentrations of andrographolide (0, 15, 30, 45 and 60 μM) for 24 h and then centrifuged to detect caspase-3 and caspase-9 activation using caspase fluoremetric protease assay kit following manufacturer’s instructions. Briefly, cells were lysed in RIPA buffer supplemented with protease inhibitor cocktail and 10 μl lysate were diluted with 10 μl substrate buffer (1:1) containing 100 μM each of fluorogenic substrate, DEVD-AFC and LEHD-AFC for caspase-3 and caspase-9 respectively, and was then incubated for 90 min at 37 °C. Reactions were stopped using 0.2 mM sodium phosphate buffer (pH 7.5) and fluorescence was quantified by a spectrofluorometer (excitation, 405 nm; emission, 505 nm). Experiment was also performed using MCF-7 cells.

C=C1CC[C@@H]2[C@](C)(CO)[C@H](O)CC[C@@]2(C)[C@@H]1C/C=C1/C(=O)OC[C@H]1O [andrographolide]
IC50 at 48 h for MCF-10A higher than that for MDA-MB-231 cells ([1]; 48 h, MCF-10A vs MDA-MB-231): ~3.5 fold
IC50 ([1]; 24 h): 138 µM
IC50 ([1]; 48 h): 106 µM
treatment did not affect normal breast epithelial cells, MCF-10A ([1]; abstract, quantity not named (presumably viability)): > 80%
IC50 ([2]; MCF7, MCF-7, 24 h): 61.1 µM
IC50 ([2]; MCF7, MCF-7, 48 h): 36.9 µM
IC50 ([3]; 24 h): 118 µM
IC50 ([3]; 48 h): 72.6 µM
IC50 ([4]; Homo sapiens, MDA-MB-231, 24 h): 52 µM
IC50 ([4]; Homo sapiens, MDA-MB-231, 48 h): 30 µM
IC50 ([4]; MDA-MB-231, 48 h): 30.3 µM
percentage of apoptotic cells [5]: 41.17%
early apoptotic cells (annexin V+ and PI-) ([6]; 24 h): 16.76 ± 0.51%
late apoptotic cells (annexin V+ and PI+) ([6]; 24 h): 32.2 ± 2.2% and 32%
early apoptotic cells (annexin V+ and PI-) ([6]; 36 h): 12.23 ± 0.29%
late apoptotic cells (annexin V+ and PI+) ([6]; 36 h): 60.06 ± 0.6%
early apoptotic cells (annexin V+ and PI-) ([6]; 48 h): 5.89 ± 0.67%
cell population in necrotic phase ([6]; all the treated conditions (24, 36, 48 h)): < 1%
cell death [7]: ~ 50%
MMP level [8]: significant (P < 0.01) drop of MMP level
LD50 [9]: 11460 mg/kg
cytotoxic effect on platelets [10]: no cytotoxic effect
activation of caspase-9 [11]: gradual dose-dependent activation
